Legend:
[1] = tested on: Plasmodium falciparum F32-TEM (artemisinin-sensitive twin line); experiment: Standard chemosensitivity assay (SYBR Green I), F32-TEM; type: cell-based; conditions: Plasmodium falciparum; F32-TEM, 48 h incubation, SYBR Green I; mean ± SEM of 3 experiments (* mean of 2); read-out: Antiplasmodial Activity: IC50, F32-TEM
Summary of the method: (§1)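 Both parasite lines grown at 2% hematocrit in human red cells with 5% human serum, 37 °C, 5% CO2, then exposed to drug for 48 h in triplicate.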

[2] = tested on: Plasmodium falciparum F32-ART (artemisinin-resistant strain); experiment: Standard chemosensitivity assay (SYBR Green I), F32-ART; type: cell-based
Summary of the method: as §1

661W = tested on: 661W; parameters: method as in PMID 29048427; conditions: data from literature ref 44, read-out: Cytotoxicity: CC50 (661W); cited from earlier work

For `CN1CCc2c(c3ccccc3n2Cc2ccc(C(=O)NO)cc2)C1` [Tubastatin A], the IC50 [1] was 8 µM, the IC50 ([2]; Plasmodium falciparum, F32-ART, 48 h incubation, SYBR Green I, mean ± SEM of 3 experiments (* mean of 2), read-out: Antiplasmodial Activity: IC50, F32-ART) was 7 µM and the “Selectivity Index CC50/IC50” value ([2]; ratio cytotoxicity (mammalian cell type of the CC50)/antiplasmodial activity on F32-ART) was over 1.4. For the same compound, the CC50 (661W) was over 10 µM.
